The text below walks through data of patent publication US20240246902A1, “PRODRUGS OF 6-DIAZO-5-OXO-L-NORLEUCINE” (THE JOHNS HOPKINS UNIVERSITY, priority 2021, published 2024).

Data set [1] in a line: Metabolic stability in swine liver tissue homogenate. The format is in vitro ADME. To be noted: prodrug 20 μM, 37° C. The method, then: (§1) The representative Compounds of the Disclosure were screened for metabolic stability in swine jejunum/liver tissue homogenates, following our previously reported methods (Zimmermann et al., J. Med. Chem., 61(9):3918-29 (2018); Tenora et al., J. Med. Chem., 62(7):3524-38 (2019)). In brief, freshly collected tissues were homogenized by probe sonication in 9× volume of 0.1 M potassium phosphate buffer over ice. Post homogenization, prodrugs were spiked at a concentration of 20 μM (in triplicate) and incubated in an orbital shaker at 37° C. for 60 min. Final concentration of DMSO in the incubations was 0.2% v/v. At each time point (0, 30, 60 min), 100 μL of sample was precipitated with 300 μL of methanol containing internal standard (IS; losartan: 0.5 μM). […] After centrifugation, 50 μL of supernatant was diluted with 50 μL of water, vortexed and submitted for analysis. Prodrug disappearance over time was measured using liquid chromatography tandem mass spectrometry (LC-MS/MS).
(§2) The processed supernatants were analyzed on a Thermo Scientific Vanquish UPLC system (equipped with Vanquish autosampler, pumps, and column compartment) hyphenated to TSQ Altis mass spectrometer (Thermo Fisher Scientific Inc., Waltham MA). […] The autosampler was operated at 4° C. […] Peak area ratios obtained from peak area counts of analyte and internal standard were used to measure the disappearance of prodrugs.

The nature of data set [2]: Metabolic stability in swine jejunum (gut) tissue homogenate. The format is in vitro ADME. To be noted: prodrug 20 μM, 37° C. The method, then:
as §1, §2

Turning to `C=CCOC(=O)[C@H](CCC(=O)C=[N+]=[N-])NC(C)=O` [Compound 5l, Allyl (S)-2-acetamido-6-diazo-5-oxohexanoate], in data set [1], the “Liver stability (% remaining at 60 min)” value was 12 ± 0%.

In the case of `CC(C)OC(=O)[C@H](CCC(=O)C=[N+]=[N-])NC(=O)C(Cl)Cl` [Compound 5e, Isopropyl (S)-6-diazo-2-(2,2-dichloroacetamido)-5-oxohexanoate], the “Liver stability (% remaining at 60 min)” value in data set [1] is given as 0 ± 0%.

As to `CC(C)OC(=O)[C@H](CCC(=O)C=[N+]=[N-])NC(=O)[C@H](Cc1c[nH]c2ccccc12)NC(=O)C1CC1` [Compound 8e, Isopropyl (S)-2-((S)-2-(cyclopropanecarboxamido)-3-(1H-indol-3-yl)propanamido)-6-diazo-5-oxohexanoate], the “Liver stability (% remaining at 60 min)” value in data set [1] is 7 ± 0%. Besides, the “Gut Stability (% remaining at 60 min)” value in data set [2] came out at 9 ± 0%.

On to `CN(C)CC(=O)N[C@@H](Cc1cn(C)c2ccccc12)C(=O)N[C@@H](CCC(=O)C=[N+]=[N-])C(N)=O` [Compound 31f, (S)-6-Diazo-2-((S)-2-(2-(dimethylamino)acetamido)-3-(1-methyl-1H-indol-3-yl)propanamido)-5-oxohexanamide], for which, in data set [1], the “Liver stability (% remaining at 60 min)” value was found to be 49 ± 0%. Moreover, the “Gut Stability (% remaining at 60 min)” value in data set [2] was 89 ± 2%.

In the case of `CC(C)C[C@H](NC(=O)CN(C)C)C(=O)N[C@@H](CCC(=O)C=[N+]=[N-])C(N)=O` [Compound 31d, (S)-6-Diazo-2-((S)-2-(2-(dimethylamino)acetamido)-4-methylpentanamido)-5-oxohexanamide], the “Liver stability (% remaining at 60 min)” value in data set [1] came out at 90 ± 1%.

Consider `Cn1cc(C[C@H](NC(=O)C(Cl)Cl)C(=O)N[C@@H](CCC(=O)C=[N+]=[N-])C(=O)OC(C)(C)C)c2ccccc21` [Compound 12h, tert-Butyl (S)-6-diazo-2-((S)-2-(2,2-dichloroacetamido)-3-(1-methyl-1H-indol-3-yl)propanamido)-5-oxohexanoate], for which the “Liver stability (% remaining at 60 min)” value in data set [1] was determined as 50 ± 3%.

With `CC(C)CC(=O)N[C@@H](Cc1c[nH]c2ccccc12)C(=O)N[C@@H](CCC(=O)C=[N+]=[N-])C(=O)OC(C)C` [Compound 8b, Isopropyl (S)-2-((S)-3-(1H-indol-3-yl)-2-(3-methylbutanamido)propanamido)-6-diazo-5-oxohexanoate], in data set [1], the “Liver stability (% remaining at 60 min)” value came to 1 ± 0%. Besides, the “Gut Stability (% remaining at 60 min)” value in data set [2] is 6 ± 1%.

On to `CC(=O)N[C@@H](Cc1cccnc1)C(=O)N[C@@H](CCC(=O)C=[N+]=[N-])C(=O)OC(C)(C)C` [Compound 17a, tert-Butyl (S)-2-((S)-2-acetamido-3-(pyridin-3-yl)propanamido)-6-diazo-5-oxohexanoate], for which the “Liver stability (% remaining at 60 min)” value in data set [1] is 103 ± 3%. Further, the “Gut Stability (% remaining at 60 min)” value in data set [2] was 96 ± 1%.

On to `CC(C)OC(=O)[C@H](CCC(=O)C=[N+]=[N-])NC(=O)[C@H](Cc1c[nH]c2ccccc12)NC(=O)CN1CCOCC1` [Compound 8i, Isopropyl (S)-2-((S)-3-(1H-indol-3-yl)-2-(2-morpholinoacetamido)propanamido)-6-diazo-5-oxohexanoate], for which the “Liver stability (% remaining at 60 min)” value in data set [1] is reported as 0 ± 0%. Moreover, in data set [2], the “Gut Stability (% remaining at 60 min)” value is recorded as 0 ± 0%.

Consider `CN(C)CC(=O)N[C@@H](CC(C)(C)C)C(=O)N[C@@H](CCC(=O)C=[N+]=[N-])C(=O)OC(C)(C)C` [Compound 24a, tert-Butyl (S)-6-diazo-2-((S)-2-(2-(dimethylamino)acetamido)-4,4-dimethylpentanamido)-5-oxohexanoate], for which the “Liver stability (% remaining at 60 min)” value in data set [1] was 78 ± 1%.

For `CN(C)CC(=O)N[C@@H](Cc1cncn1C)C(=O)N[C@@H](CCC(=O)C=[N+]=[N-])C(=O)OC(C)(C)C` [Compound 18b, tert-Butyl (S)-6-diazo-2-((S)-2-(2-(dimethylamino)acetamido)-3-(1-methyl-1H-imidazol-5-yl)propanamido)-5-oxohexanoate], in data set [1], the “Liver stability (% remaining at 60 min)” value was found to be 100 ± 3%. Besides, the “Gut Stability (% remaining at 60 min)” value in data set [2] worked out at 98 ± 2%.

In the case of `CN(C)[C@@H](Cc1ccccc1)C(=O)N[C@@H](CCC(=O)C=[N+]=[N-])C(=O)OC(C)(C)C` [Compound 26a, tert-Butyl (S)-6-diazo-2-((S)-2-(dimethylamino)-3-phenylpropanamido)-5-oxohexanoate], the “Liver stability (% remaining at 60 min)” value in data set [1] is 71 ± 0%.

As to `CCCC(=O)N[C@@H](Cc1c[nH]c2ccccc12)C(=O)N[C@@H](CCC(=O)C=[N+]=[N-])C(=O)OC(C)C` [Compound 8a, Isopropyl (S)-2-((S)-2-butyramido-3-(1H-indol-3-yl)propanamido)-6-diazo-5-oxohexanoate], in data set [1], the “Liver stability (% remaining at 60 min)” value is listed as 5 ± 1%. For the same compound, the “Gut Stability (% remaining at 60 min)” value in data set [2] is reported as 12 ± 1%.

Take `CCN(CC)CC(=O)N[C@@H](Cc1c[nH]c2ccccc12)C(=O)N[C@@H](CCC(=O)C=[N+]=[N-])C(=O)OC(C)C` [Compound 8g, Isopropyl (S)-6-diazo-2-((S)-2-(2-(diethylamino)acetamido)-3-(1H-indol-3-yl)propanamido)-5-oxohexanoate]: the “Liver stability (% remaining at 60 min)” value in data set [1] was determined as 1 ± 0%. The “Gut Stability (% remaining at 60 min)” value in data set [2] amounted to 1 ± 0%.

Turning to `CC(C)OC(=O)[C@H](CCC(=O)C=[N+]=[N-])NC(=O)[C@H](Cc1c[nH]c2ccccc12)NC(=O)CN(C)C` [Compound 8f, Isopropyl (S)-6-diazo-2-((S)-2-(2-(dimethylamino)acetamido)-3-(1H-indol-3-yl)propanamido)-5-oxohexanoate], the “Liver stability (% remaining at 60 min)” value in data set [1] is 2 ± 0%. Further, in data set [2], the “Gut Stability (% remaining at 60 min)” value came out at 2 ± 0%.

On to `CC(=O)N[C@@H](Cc1cncn1C)C(=O)N[C@@H](CCC(=O)C=[N+]=[N-])C(=O)OC(C)(C)C` [Compound 18a, tert-Butyl (S)-2-((S)-2-acetamido-3-(1-methyl-1H-imidazol-5-yl)propanamido)-6-diazo-5-oxohexanoate], for which the “Liver stability (% remaining at 60 min)” value in data set [1] was found to be 105 ± 2%. In data set [2], the “Gut Stability (% remaining at 60 min)” value came out at 93 ± 1%.

For `CN(C)CC(=O)NCC(=O)N[C@@H](CCC(=O)C=[N+]=[N-])C(N)=O` [Compound 31c, (S)-6-Diazo-2-(2-(2-(dimethylamino)acetamido)acetamido)-5-oxohexanamide], the “Liver stability (% remaining at 60 min)” value in data set [1] is on record as 89 ± 4%.

For `CC(C)OC(=O)[C@H](CCC(=O)C=[N+]=[N-])NC(=O)[C@H](Cc1c[nH]c2ccccc12)NC(=O)CN1CCN(C)CC1` [Compound 8j, Isopropyl (S)-2-((S)-3-(1H-indol-3-yl)-2-(2-(4-methylpiperazin-1-yl)acetamido)propanamido)-6-diazo-5-oxohexanoate], the “Liver stability (% remaining at 60 min)” value in data set [1] is reported as 2 ± 0%.

Consider `CN(C)CC(=O)N[C@@H](Cc1ccccc1)C(=O)N[C@@H](CCC(=O)C=[N+]=[N-])C(N)=O` [Compound 31e, (S)-6-Diazo-2-((S)-2-(2-(dimethylamino)acetamido)-3-phenylpropanamido)-5-oxohexanamide], for which the “Liver stability (% remaining at 60 min)” value in data set [1] was determined as 39 ± 0%.

Turning to `CC(C)OC(=O)[C@H](CCC(=O)C=[N+]=[N-])NC(=O)[C@H](Cc1c[nH]c2ccccc12)NC(=O)c1ccncc1` [Compound 8m, Isopropyl (S)-2-((S)-3-(1H-indol-3-yl)-2-(isonicotinamido)propanamido)-6-diazo-5-oxohexanoate], in data set [1], the “Liver stability (% remaining at 60 min)” value worked out at 0 ± 0%.
